Experimental data published in the supplement of paper PMC7017272.
± gives the standard deviation of the averaged measurements.

Assays:
Conditions in all cases: treatment time: 3 days
UT-SCC-81 [1] = assay: maximal % inhibition of viability relative to DMSO; higher = stronger effect
Experimental: (§1)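 HNSCC cell lines (500 cells/well, 384-well) were cultured on plastic, on top of (2D) or embedded (3D) in Matrigel or human leiomyoma matrix Myogel (500 ug/mL; Myogel 3D mixed with rat collagen I). Cells were treated for 3 days with 5 ten-fold concentrations of each drug, and viability was read by CellTiter-Glo. Viability was normalised to DMSO and benzethonium chloride controls and fitted with the FIMM DSRT pipeline to give IC50 (nM), maximal % inhibition and DSS. Suffixes _1/_2/_3 are replicates. Only inhibition-mode (IC50) fits are kept.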

UT-SCC-8 = assay: as above
Experimental: as §1

UT-SCC-24B [2] = assay: as above
Experimental: as §1

UT-SCC-14 [3] = assay: as above
Experimental: as §1

UT-SCC-40 [4] = assay: as above
Experimental: as §1

UT-SCC-42B [5] = assay: as above
Experimental: as §1

UT-SCC-28 [6] = assay: as above
Experimental: as §1

UT-SCC-42A [7] = assay: as above
Experimental: as §1

UT-SCC-24B [8] = assay: relative IC50 (midpoint of the fitted curve; maximal inhibition may be below 50%); higher = less potent
Summary of the method: (§2)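 Viability of HPV-negative HNSCC cell lines was measured by CellTiter-Glo 2.0 luminescence. Cells were seeded at 500 cells/well in 384-well plates on plastic, on Matrigel- or Myogel-coated wells (500 µg/mL), or embedded in Matrigel or Myogel plus rat collagen I, then given compounds at five 10-fold concentrations for 3 days, with signals normalised to vehicle (0.1% DMSO) and cell-killing control wells. Fitting of percent-inhibition dose–response curves in the FIMM pipeline yielded IC50, maximal inhibition and drug sensitivity score.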

UT-SCC-44 = assay: as above
Summary of the method: as §2

UT-SCC-73 = assay: as above
Summary of the method: as §2

UT-SCC-14 [9] = assay: as above
Summary of the method: as §2

UT-SCC-106A = assay: as above
Summary of the method: as §2

UT-SCC-28 [10] = assay: as above
Summary of the method: as §2

UT-SCC-42A [11] = assay: as above
Summary of the method: as §2

UT-SCC-24A = assay: relative IC50 (midpoint of the fitted curve; maximal inhibition may be below 50%); higher = less potent
Experimental: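 HNSCC cell lines (500 cells/well, 384-well) were cultured on plastic, on top of (2D) or embedded (3D) in Matrigel or human leiomyoma matrix Myogel (500 ug/mL; Myogel 3D mixed with rat collagen I). Cells were treated for 3 days with 5 ten-fold concentrations of each drug, and viability was read by CellTiter-Glo. Viability was normalised to DMSO (0% inhibition) and 100 uM benzethonium chloride (100% inhibition) controls and fitted with the FIMM DSRT pipeline to give IC50 (nM), maximal % inhibition and the drug sensitivity score (DSS). Suffixes _1/_2/_3 on drug names are replicates.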

UT-SCC-81 [12] = assay: relative IC50 (midpoint of the fitted curve; maximal inhibition may be below 50%); higher = less potent
Summary of the method: as §2

UT-SCC-40 [13] = assay: as above
Summary of the method: as §2

UT-SCC-42B [14] = assay: as above
Summary of the method: as §2

[15] = culture condition: embedded in Matrigel
[16] = culture condition: embedded in Myogel + collagen I
[17] = culture condition: on top of Matrigel
[18] = culture condition: on top of Myogel
[19] = culture condition: plastic 2D (no matrix)

## COc1ccc(-c2cc3c(C)nc(N)nc3n([C@H]3CC[C@H](OCCO)CC3)c2=O)cn1
UT-SCC-81 [1]; [15]
  maximal % inhibition of viability: 94 ± 4.5%
UT-SCC-81 [1]; [16]
  maximal % inhibition of viability: 77.7 ± 13%
UT-SCC-81 [1]; [17]
  maximal % inhibition of viability: 89.7 ± 4.7%
UT-SCC-81 [1]; [18]
  maximal % inhibition of viability: 79.7 ± 8.8%
UT-SCC-81 [1]; [19]
  maximal % inhibition of viability: 81.7 ± 7.7%
UT-SCC-8; [15]
  maximal % inhibition of viability: 91.8 ± 9%
UT-SCC-8; [16]
  maximal % inhibition of viability: 71.3 ± 21%
UT-SCC-8; [17]
  maximal % inhibition of viability: 82.1 ± 19%
UT-SCC-8; [18]
  maximal % inhibition of viability: 78.7 ± 14%
UT-SCC-8; [19]
  maximal % inhibition of viability: 84 ± 14%
UT-SCC-24B [2]; [15]
  maximal % inhibition of viability: 99.6 ± 0.2%
UT-SCC-24B [2]; [16]
  maximal % inhibition of viability: 98.7 ± 0.36%
UT-SCC-24B [2]; [17]
  maximal % inhibition of viability: 99.57 ± 0.67%
UT-SCC-24B [2]; [18]
  maximal % inhibition of viability: 99 ± 1%
UT-SCC-24B [2]; [19]
  maximal % inhibition of viability: 99.73 ± 0.46%
UT-SCC-14 [3]; [15]
  maximal % inhibition of viability: 80.5 ± 3.8%
UT-SCC-14 [3]; [16]
  maximal % inhibition of viability: 67.7 ± 5.3%
UT-SCC-14 [3]; [17]
  maximal % inhibition of viability: 77.3 ± 1.4%
UT-SCC-14 [3]; [18]
  maximal % inhibition of viability: 67.5 ± 3.8%
UT-SCC-14 [3]; [19]
  maximal % inhibition of viability: 72.7 ± 3.6%
UT-SCC-40 [4]; [15]
  maximal % inhibition of viability: 88.6 ± 7.3%
UT-SCC-40 [4]; [16]
  maximal % inhibition of viability: 74 ± 12%
UT-SCC-40 [4]; [17]
  maximal % inhibition of viability: 85.1 ± 7.9%
UT-SCC-40 [4]; [18]
  maximal % inhibition of viability: 64.1 ± 17%
UT-SCC-40 [4]; [19]
  maximal % inhibition of viability: 68 ± 15%
UT-SCC-42B [5]; [15]
  maximal % inhibition of viability: 63.8 ± 11%
UT-SCC-42B [5]; [17]
  maximal % inhibition of viability: 31.5 ± 7%
UT-SCC-42B [5]; [18]
  maximal % inhibition of viability: 18.5 ± 13%
UT-SCC-42B [5]; [19]
  maximal % inhibition of viability: 21.6 ± 12%
UT-SCC-28 [6]; [15]
  maximal % inhibition of viability: 63.3 ± 13%
UT-SCC-28 [6]; [16]
  maximal % inhibition of viability: 65.3 ± 16%
UT-SCC-28 [6]; [17]
  maximal % inhibition of viability: 66 ± 3.7%
UT-SCC-28 [6]; [19]
  maximal % inhibition of viability: 56.8 ± 3.1%
UT-SCC-42A [7]; [15]
  maximal % inhibition of viability: 71.4 ± 9.7%
UT-SCC-42A [7]; [16]
  maximal % inhibition of viability: 62.5 ± 12%
UT-SCC-42A [7]; [17]
  maximal % inhibition of viability: 72.1 ± 7.3%
UT-SCC-42A [7]; [18]
  maximal % inhibition of viability: 63.3 ± 12%
UT-SCC-42A [7]; [19]
  maximal % inhibition of viability: 72.5 ± 6.5%
UT-SCC-24B [8]; [16]
  relative IC50: 163 nM
UT-SCC-24B [8]; [17]
  relative IC50: 363 nM
UT-SCC-24B [8]; [18]
  relative IC50: 562 nM
UT-SCC-24B [8]; [19]
  relative IC50: 337 nM
UT-SCC-44; [15]
  relative IC50: 78.9 nM
UT-SCC-44; [18]
  relative IC50: 805 nM
UT-SCC-73; [15]
  relative IC50: 272 nM
UT-SCC-14 [9]; [18]
  relative IC50: 543 nM
UT-SCC-14 [9]; [19]
  relative IC50: 741 nM
UT-SCC-106A; [15]
  relative IC50: 98.9 nM
UT-SCC-106A; [19]
  relative IC50: 193 nM
UT-SCC-28 [10]; [17]
  relative IC50: 118 nM
UT-SCC-42A [11]; [15]
  relative IC50: 1810 nM

## Cn1cnc2c(F)c(Nc3ccc(Br)cc3F)c(C(=O)NOCCO)cc21 [Binimetinib]
UT-SCC-81 [1]; [15]
  maximal % inhibition of viability: 85.5 ± 1%
UT-SCC-81 [1]; [16]
  maximal % inhibition of viability: 18.7 ± 4.7%
UT-SCC-81 [1]; [17]
  maximal % inhibition of viability: 76.3 ± 3.8%
UT-SCC-81 [1]; [18]
  maximal % inhibition of viability: 23.5 ± 3.9%
UT-SCC-81 [1]; [19]
  maximal % inhibition of viability: 38.7 ± 2.1%
UT-SCC-8; [15]
  maximal % inhibition of viability: 40.9 ± 26%
UT-SCC-8; [16]
  maximal % inhibition of viability: 19.8 ± 23%
UT-SCC-8; [17]
  maximal % inhibition of viability: 28.9 ± 14%
UT-SCC-8; [18]
  maximal % inhibition of viability: 29 ± 15%
UT-SCC-8; [19]
  maximal % inhibition of viability: 31 ± 25%
UT-SCC-24B [2]; [15]
  maximal % inhibition of viability: 60.3 ± 0.64%
UT-SCC-24B [2]; [16]
  maximal % inhibition of viability: 49.6 ± 11%
UT-SCC-24B [2]; [17]
  maximal % inhibition of viability: 50.7 ± 2.5%
UT-SCC-24B [2]; [18]
  maximal % inhibition of viability: 28.6 ± 5.1%
UT-SCC-24B [2]; [19]
  maximal % inhibition of viability: 69.4 ± 4.1%
UT-SCC-14 [3]; [15]
  maximal % inhibition of viability: 29.8 ± 10%
UT-SCC-14 [3]; [16]
  maximal % inhibition of viability: 33.8 ± 15%
UT-SCC-14 [3]; [17]
  maximal % inhibition of viability: 33.3 ± 9.7%
UT-SCC-14 [3]; [18]
  maximal % inhibition of viability: 32.4 ± 24%
UT-SCC-14 [3]; [19]
  maximal % inhibition of viability: 25.9 ± 25%
UT-SCC-40 [4]; [15]
  maximal % inhibition of viability: 77.3 ± 2.2%
UT-SCC-40 [4]; [16]
  maximal % inhibition of viability: 58.1 ± 13%
UT-SCC-40 [4]; [17]
  maximal % inhibition of viability: 72.4 ± 2%
UT-SCC-40 [4]; [18]
  maximal % inhibition of viability: 44.7 ± 8.7%
UT-SCC-40 [4]; [19]
  maximal % inhibition of viability: 52.8 ± 6%
UT-SCC-42B [5]; [15]
  maximal % inhibition of viability: 66.2 ± 7.5%
UT-SCC-42B [5]; [17]
  maximal % inhibition of viability: 48.5 ± 15%
UT-SCC-42B [5]; [18]
  maximal % inhibition of viability: 24.8 ± 7%
UT-SCC-42B [5]; [19]
  maximal % inhibition of viability: 31.3 ± 8.6%
UT-SCC-28 [6]; [15]
  maximal % inhibition of viability: 38.5 ± 2.6%
UT-SCC-28 [6]; [16]
  maximal % inhibition of viability: 12.5 ± 11%
UT-SCC-28 [6]; [17]
  maximal % inhibition of viability: 31.2 ± 2.9%
UT-SCC-28 [6]; [19]
  maximal % inhibition of viability: 21.9 ± 6.2%
UT-SCC-42A [7]; [15]
  maximal % inhibition of viability: 48.9 ± 1.6%
UT-SCC-42A [7]; [16]
  maximal % inhibition of viability: 24.5 ± 4.6%
UT-SCC-42A [7]; [17]
  maximal % inhibition of viability: 52.2 ± 5.8%
UT-SCC-42A [7]; [18]
  maximal % inhibition of viability: 28.6 ± 5.7%
UT-SCC-42A [7]; [19]
  maximal % inhibition of viability: 46.3 ± 2.8%
UT-SCC-24A; [17]
  relative IC50: 5.41 nM
UT-SCC-24A; [18]
  relative IC50: 17.3 nM
UT-SCC-24A; [19]
  relative IC50: 6.48 nM
UT-SCC-81 [12]; [15]
  relative IC50: 9.22 nM
UT-SCC-81 [12]; [16]
  relative IC50: 175 nM
UT-SCC-81 [12]; [17]
  relative IC50: 53.2 nM
UT-SCC-81 [12]; [18]
  relative IC50: 14.9 nM
UT-SCC-81 [12]; [19]
  relative IC50: 74.4 nM
UT-SCC-24B [8]; [15]
  relative IC50: 115 nM
UT-SCC-24B [8]; [17]
  relative IC50: 101 nM
UT-SCC-24B [8]; [19]
  relative IC50: 69 nM
UT-SCC-44; [15]
  relative IC50: 19.6 nM
UT-SCC-44; [18]
  relative IC50: 41.3 nM
UT-SCC-73; [15]
  relative IC50: 28.2 nM
UT-SCC-73; [17]
  relative IC50: 23.7 nM
UT-SCC-73; [18]
  relative IC50: 65.3 nM
UT-SCC-73; [19]
  relative IC50: 27.9 nM
UT-SCC-106A; [15]
  relative IC50: 8.97 nM
UT-SCC-106A; [17]
  relative IC50: 13.8 nM
UT-SCC-106A; [18]
  relative IC50: 101 nM
UT-SCC-106A; [19]
  relative IC50: 19.3 nM
UT-SCC-40 [13]; [15]
  relative IC50: 16.5 nM
UT-SCC-40 [13]; [17]
  relative IC50: 39.4 nM
UT-SCC-40 [13]; [18]
  relative IC50: 54 nM
UT-SCC-40 [13]; [19]
  relative IC50: 51.7 nM
UT-SCC-42B [14]; [15]
  relative IC50: 9.72 nM
UT-SCC-42B [14]; [17]
  relative IC50: 47.8 nM
UT-SCC-42B [14]; [19]
  relative IC50: 54.3 nM
UT-SCC-28 [10]; [16]
  relative IC50: > 989 nM
UT-SCC-28 [10]; [17]
  relative IC50: 26.5 nM
UT-SCC-42A [11]; [15]
  relative IC50: 13.8 nM
UT-SCC-42A [11]; [17]
  relative IC50: 8.75 nM
UT-SCC-42A [11]; [18]
  relative IC50: 14.9 nM
UT-SCC-42A [11]; [19]
  relative IC50: 25.5 nM
